Assays:
[1] = system: Large crabgrass (Digitaria sanguinalis); assay: Large crabgrass dose response study, plants from sod farm seed; type: in vivo; conditions: for resistance or susceptibility of this population of large crabgrass: conclusion from ED50 values; for effective dose required to cause 50% injury (ED50): large crabgrass grown from sod farm seed, treated when 3-5 cm tall
Experimental: (§1) Plants were grown from seed collected from a turfgrass sod farm near where sethoxydim had been continuously used for twelve years. Seeds were planted in 250 mL styrofoam cups with a potting mixture of pure sand in a glasshouse with supplemental lighting (300 uE/m2/s) and 30/25 temperature. Plants were watered once daily and fertilized once a week. Large crabgrass plants were treated with herbicides when 3-5 cm tall in a dose response study. Four herbicides (sethoxydim, fluazifop, clethodim, and pinoxaden) were applied at […]. Plant injury was observed 7 and 14 DAT. The experimental design consisted of a randomized complete block design with three replications. The experiment was replicated in time.

[2] = system: Large crabgrass (Digitaria sanguinalis) F2; assay: Large crabgrass dose response study, F2 from self-pollinated surviving plants; type: in vivo
Experimental: as §1
In response to all four herbicides, the plants initially illutrated typical ACCase symptomology, but recovered in 7-14 days after treatment (DAT). […] Seeds from self-pollinated surviving large crabgrass plants were collected and analyzed using the same dose response design as state before. […] The ED50 was approximately 10 times greater for the resistant (R) population than that for the wild type (S) population.

Compound	resistance or susceptibility of this population of large crabgrass [1]	effective dose required to cause 50% injury (ED50) [1]	effective dose required to cause 50% injury (ED50) [2]
CCc1cc(C)cc(CC)c1-c1c(OC(=O)C(C)(C)C)n2n(c1=O)CCOCC2 [pinoxaden]	resistant	168±29 g ai/ha	131±44 g ai/ha
CCSC(C)CC1CC(=O)C(/C(CC)=N/OC/C=C/Cl)=C(O)C1 (racemic) [clethodim, (E,E)-(±)-2-[1-[[(3-chloro-2-propenyl)oxy]imino]propyl]-5-[2-(ethylthio)propyl]-3-hydroxy-2-cyclohexen-1-one]	susceptible	51±4 g ai/ha	28±22 g ai/ha
